PubChem BioAssay AID2060890 (Molecular Pharmacology Branch, DTP, NCI, 2025)

System: LG0703-F948-PDC complex spheroid viability
Experiment: Anticancer human tumor LG0703-F948-PDC patient-derived lung adenocarcinoma cell line growth inhibition [RAS]
Conditions: for IC50: curve of first compound; for viability, T/C: stronger effect = lower value
Summary of the method: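 Agents were tested in combination matrices in half-log decrements from a top concentration at or near clinical Cmax (10 microM if undetermined). Targets were multi-cell spheroids of tumour lines plus HUVEC and MSC stromal cells.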

[1] = second compound 0.00316 µM, first compound 0.0316 µM
[2] = second compound 0.00316 µM, first compound 0.1 µM
[3] = second compound 0.00316 µM, first compound 0.316 µM
[4] = second compound 0.00316 µM, first compound 1 µM
[5] = second compound 0.01 µM, first compound 0.0316 µM
[6] = second compound 0.01 µM, first compound 0.1 µM
[7] = second compound 0.01 µM, first compound 0.316 µM
[8] = second compound 0.01 µM, first compound 1 µM
[9] = second compound 0.0316 µM, first compound 0.0316 µM
[10] = second compound 0.0316 µM, first compound 0.1 µM
[11] = second compound 0.0316 µM, first compound 0.316 µM
[12] = second compound 0.0316 µM, first compound 1 µM
[13] = second compound 0.1 µM, first compound 0.0316 µM
[14] = second compound 0.1 µM, first compound 0.1 µM
[15] = second compound 0.1 µM, first compound 0.316 µM
[16] = second compound 0.1 µM, first compound 1 µM
[17] = second compound 0.316 µM, first compound 0.0316 µM
[18] = second compound 0.316 µM, first compound 0.1 µM
[19] = second compound 0.316 µM, first compound 0.316 µM
[20] = second compound 0.316 µM, first compound 1 µM
[21] = second compound 1 µM, first compound 0.0316 µM
[22] = second compound 1 µM, first compound 0.1 µM
[23] = second compound 1 µM, first compound 0.316 µM
[24] = second compound 1 µM, first compound 1 µM
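Note: spheroids exposed to agents for 7 days.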
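Throughout, for viability, T/C: 100% = DMSO vehicle wells.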

With C=CC(=O)Nc1cc(Nc2nccc(-c3cn(C)c4ccccc34)n2)c(OC)cc1N(C)CCN(C)C + C=CC(=O)N1CCN(c2nc(OCC3CCCN3C)nc3c(F)c(-c4nc(N)cc(C)c4C(F)(F)F)c(Cl)cc23)C(C)C1 the IC50 (second compound 0.00316 µM) was 7.32 nM, the IC50 (second compound 0.01 µM) was 7.97 nM and the IC50 (second compound 0.0316 µM) was 8.46 nM. The IC50 (second compound 0.1 µM) was 8.29 nM, the IC50 (second compound 0.316 µM) was 7.93 nM and the IC50 (second compound 1 µM) was 8.3 nM. The viability, T/C (second compound 0.00316 µM, first compound 0.00316 µM) was 75.2%, the viability, T/C (second compound 0.00316 µM, first compound 0.01 µM) was 40.8% and the viability, T/C [1] was 16.2%. For the same compound, the viability, T/C [2] was 14.6%, the viability, T/C [3] was 10.9% and the viability, T/C [4] was 8.91%. The viability, T/C (second compound 0.01 µM, first compound 0.00316 µM) was 79.8%, the viability, T/C (second compound 0.01 µM, first compound 0.01 µM) was 42.7% and the viability, T/C [5] was 16.9%. It also gave a viability, T/C [6] of 9.65%, a viability, T/C [7] of 8.46% and a viability, T/C [8] of 7.04%. For the same compound, the viability, T/C (second compound 0.0316 µM, first compound 0.00316 µM) was 79.7%, the viability, T/C (second compound 0.0316 µM, first compound 0.01 µM) was 45% and the viability, T/C [9] was 16.2%. For the same compound, the viability, T/C [10] was 10.3%, the viability, T/C [11] was 10.2% and the viability, T/C [12] was 6.08%. For the same compound, the viability, T/C (second compound 0.1 µM, first compound 0.00316 µM) was 86.3%, the viability, T/C (second compound 0.1 µM, first compound 0.01 µM) was 43% and the viability, T/C [13] was 14.8%. It also gave a viability, T/C [14] of 10.8%, a viability, T/C [15] of 9.54% and a viability, T/C [16] of 6.22%. The viability, T/C (second compound 0.316 µM, first compound 0.00316 µM) was 79.2%, the viability, T/C (second compound 0.316 µM, first compound 0.01 µM) was 42.7% and the viability, T/C [17] was 17.4%. The viability, T/C [18] was 9.84%, the viability, T/C [19] was 9.21% and the viability, T/C [20] was 6.05%. It also gave a viability, T/C (second compound 1 µM, first compound 0.00316 µM) of 79.5%, a viability, T/C (second compound 1 µM, first compound 0.01 µM) of 44.5% and a viability, T/C [21] of 15.7%. For the same compound, the viability, T/C [22] was 10.2%, the viability, T/C [23] was 9.74% and the viability, T/C [24] was 5.04%.

CC(C)NCC(C(=O)N1CCN(c2ncnc3c2C(C)CC3O)CC1)c1ccc(Cl)cc1 (centres undefined) + C=CC(=O)N1CCN(c2nc(OCC3CCCN3C)nc3c(F)c(-c4nc(N)cc(C)c4C(F)(F)F)c(Cl)cc23)C(C)C1 was tested, and the IC50 (second compound 0.00316 µM) was 577 nM, the IC50 (second compound 0.01 µM) was 656 nM and the IC50 (second compound 0.0316 µM) was 625 nM. It also gave an IC50 (second compound 0.1 µM) of 650 nM, an IC50 (second compound 0.316 µM) of 640 nM and an IC50 (second compound 1 µM) of 696 nM. It also gave a viability, T/C [1] of 97%, a viability, T/C [2] of 77.6% and a viability, T/C [3] of 56.9%. The viability, T/C [4] was 44.7%, the viability, T/C (second compound 0.00316 µM, first compound 3.16 µM) was 28.1% and the viability, T/C (second compound 0.00316 µM, first compound 10 µM) was 21.6%. The viability, T/C [5] was 96.4%, the viability, T/C [6] was 78.8% and the viability, T/C [7] was 56.2%. It also gave a viability, T/C [8] of 46.5%, a viability, T/C (second compound 0.01 µM, first compound 3.16 µM) of 31.6% and a viability, T/C (second compound 0.01 µM, first compound 10 µM) of 20.8%. The viability, T/C [9] was 100%, the viability, T/C [10] was 79.9% and the viability, T/C [11] was 61.9%. It also gave a viability, T/C [12] of 40.4%, a viability, T/C (second compound 0.0316 µM, first compound 3.16 µM) of 33.3% and a viability, T/C (second compound 0.0316 µM, first compound 10 µM) of 23.3%. It also gave a viability, T/C [13] of 87.3%, a viability, T/C [14] of 74.6% and a viability, T/C [15] of 62%. For the same compound, the viability, T/C [16] was 42%, the viability, T/C (second compound 0.1 µM, first compound 3.16 µM) was 31.6% and the viability, T/C (second compound 0.1 µM, first compound 10 µM) was 21.2%. The viability, T/C [17] was 103%, the viability, T/C [18] was 82% and the viability, T/C [19] was 58.5%. For the same compound, the viability, T/C [20] was 44.2%, the viability, T/C (second compound 0.316 µM, first compound 3.16 µM) was 29.8% and the viability, T/C (second compound 0.316 µM, first compound 10 µM) was 18.5%. For the same compound, the viability, T/C [21] was 104%, the viability, T/C [22] was 97% and the viability, T/C [23] was 61.4%. For the same compound, the viability, T/C [24] was 44.9%, the viability, T/C (second compound 1 µM, first compound 3.16 µM) was 25.8% and the viability, T/C (second compound 1 µM, first compound 10 µM) was 15.1%.
